Experimental data published in patent US10780061B2, “Composition comprising farnesol and use thereof” (Daegu Gyongbuk Institute of Science and Technology, priority 2014, dated 2020).

Columns and labels:
[1] = Grip strength of old mice; format: in vivo; conditions: old mouse, farnesol diet 4 months, vs negative control old mouse
Description: 22-month-old female mice (weighing 30 g) are fed with a control diet and a farnesol diet for 4 months. That is, 22-month-old mice are fed for 4 months, and then 26-month-old mice are analyzed. […] The same mouse is used as a control group, except that it is fed with a diet containing no farnesol. Muscle strength, energy expenditure, glucose tolerance, and fat accumulation of each mouse are evaluated. […] To measure grip strength as an index of mouse muscle strength, a grip strength meter (Bioseb) is used. For measurement of grip strength of mouse, its front paws are allowed to grip the grid, and its tail is then pulled back steadily and horizontally. When the animal releases the grid, the value is used as grip strength. The maximal grip strength values of individual mice are measured 5 times, and mean values are obtained. Grip strength is expressed as a force (g, gram) per weight.

[2] = molecular target: T1, PARIS (Mus musculus, UniProt Q3U133); assay: Immunoprecipitation analysis for PARIS farnesylation in myoblasts; format: cell-based
T1 construct: endogenous in cells; host or cells: C2C12 myoblasts
T1 sequence (Q3U133 whole entry): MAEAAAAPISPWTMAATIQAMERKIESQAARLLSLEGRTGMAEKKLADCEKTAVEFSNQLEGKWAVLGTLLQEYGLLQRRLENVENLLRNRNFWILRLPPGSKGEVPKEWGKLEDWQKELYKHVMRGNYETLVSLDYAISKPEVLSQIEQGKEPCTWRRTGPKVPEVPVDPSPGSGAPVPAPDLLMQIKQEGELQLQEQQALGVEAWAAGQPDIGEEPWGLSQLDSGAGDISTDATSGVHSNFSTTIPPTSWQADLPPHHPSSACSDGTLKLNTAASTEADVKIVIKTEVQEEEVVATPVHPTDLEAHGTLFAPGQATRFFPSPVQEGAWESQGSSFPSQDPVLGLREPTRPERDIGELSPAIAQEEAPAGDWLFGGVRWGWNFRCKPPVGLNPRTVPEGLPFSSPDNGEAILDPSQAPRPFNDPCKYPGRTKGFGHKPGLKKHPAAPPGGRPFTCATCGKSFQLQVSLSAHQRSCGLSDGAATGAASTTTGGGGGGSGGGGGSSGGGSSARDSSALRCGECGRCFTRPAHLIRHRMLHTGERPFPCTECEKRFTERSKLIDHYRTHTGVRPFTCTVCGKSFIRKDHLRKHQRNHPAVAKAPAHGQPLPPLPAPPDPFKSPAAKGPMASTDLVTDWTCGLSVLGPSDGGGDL
Description: C2C12 cells are cultured in the presence of farnesol, and cell lysate is subjected to immunoprecipitation. As an experimental group, C2C12 cells are cultured in the presence of 10 uM farnesol for 24 hours, and also cultured in the differentiation medium described in Section 2 of Example 1 for 24 hours by adding 10 uM farnesol according to a culturing schedule, that is, at 0 day, 1 day, 2 days, 3 days, and 4 days (hereinafter, also referred to as ‘D0, D1, D2, D3 and D4’ or ‘D0-D04’). Next, a cell lysis buffer (20 mM Tris-HCl, pH 8, 150 mM NaCl, 1% Triton X, Proteinase Inhibitor) is added to the harvested cells, and cell lysis is allowed under refrigeration for 60 minutes, followed by centrifugation at 13,000 rpm for 20 minutes. A supernatant is removed by 50 uL of protein A/G-agarose in advance, and a target protein antibody is reacted for 12 hours or longer. The resultant is mixed with protein A/G-agarose beads, and stirred for 1 hour. The beads are washed with a cold lysis buffer at a low concentration three times to remove abnormal protein binding. The obtained sample is mixed with a 2×SDS sample buffer (0.125 M Tris-HCl (pH 6.8), 4% SDS, 10% β-mercaptoethanol, 18% glycerol, and 0.1% Bromophenol Blue), and then electrophoresed on 8% SDS-PAGE. […]

[3] = test system: C2C12 myoblasts; assay: Immunoblot of PGC-1α and differentiation markers in farnesol-treated myoblasts; format: cell-based
Description: DMEM (Dulbecco's Modified Eagle Medium) supplemented with 10% fetal bovine serum is used as a growth medium for culture of C2C12 myoblasts, and DMEM supplemented with 2% horse serum is used as a differentiation medium for differentiation of muscle cells. To induce differentiation of C2C12 myoblasts into muscle cells, 0.1 μM farnesol dissolved in DMSO or various concentrations of farnesol (0.1, 1, 10, 100 uM) are added, and DMSO is only added to a control group. The cells are cultured for 48 hours to induce differentiation, and then a lysis buffer (20 mM Tris-HCl, pH 8, 150 mM NaCl, 1% Triton X, Proteinase Inhibitor) is added to the harvested cells to allow lysis for 30 minutes, followed by centrifugation at 13,000 rpm for 30 minutes. The amount of protein in the cell lysis sample is quantified and an equal amount of protein is subjected to 8% SDS-PAGE. The protein is transferred onto a PVDF membrane, and then incubated in a blocking buffer containing 5% skim milk for 1 hour. HRP (horseradish peroxidase)-conjugated rabbit antibodies specific to individual proteins, diluted in 5% BSA, are reacted with the membrane at 4° C. for 12 hours, and then the membrane is washed with a wash buffer for 5 minutes three times. Thereafter, the membrane is exposed to X-ray film using an ECL reagent (Roche) to confirm protein expression levels.

[4] = Glucose tolerance test of old mice; format: in vivo; conditions: old mouse, 1 g/kg glucose i.p. after overnight fast
Description: 22-month-old female mice (weighing 30 g) are fed with a control diet and a farnesol diet for 4 months. That is, 22-month-old mice are fed for 4 months, and then 26-month-old mice are analyzed. […] The same mouse is used as a control group, except that it is fed with a diet containing no farnesol. Muscle strength, energy expenditure, glucose tolerance, and fat accumulation of each mouse are evaluated.

[5] = test system: PARIS; assay: PARIS protein and transcriptional levels in extensor digitorum longus muscles of old mouse; format: in vivo; conditions: 24-month-old mouse, farnesol 5 weeks, vs old mouse without farnesol
[6] = test system: fibrosis-related genes Col1 A1, Col A3, TGF-β, Timp2; assay: qRT-PCR of fibrosis-related genes in extensor digitorum longus muscles; format: in vivo, mouse; conditions: 22-month-old mice, farnesol diet 4 months
Description: In muscle aging, fibrosis is closely related to a reduction in regenerative capacity and a reduction in quality of muscle. 22-month-old female mice (weighing 30 g) are fed with a control diet or a farnesol-containing diet for 4 months. Other feeding conditions are the same as described in Section 2 of Example 1. Thereafter, expressions of fibrosis-related genes, collagen 1 A1 (Col1 A1), collagen A3(Col A3), TGF-β, and Timp2 in extensor digitorum longus muscles are analyzed by qRT-PCR (quantitative Real Time-polymerase chain reaction) (primer sets of SEQ ID NOS: 1 and 2, 3 and 4, 5 and 6, 7 and 8 are used).

[7] = test system: injured tibialis anterior muscles; assay: Histological staining of cardiotoxin-injured tibialis anterior muscles of old animals; format: in vivo, mouse; conditions: 25-month-old mice, farnesol diet 2 weeks, 4 days after CTX injury
Description: 25-month-old mice are fed with a control diet or a farnesol-containing diet for 2 weeks, and then 2 ul of 10 uM cardiotoxin (CTX) per body weight (g) is directly injected into the muscle to induce muscle injury. After 4 days, muscles are frozen and sectioned, followed by histological staining.
Hematoxylin and eosin (H&E) staining and sirus red staining are used in histological staining. Because muscle fibrosis […] and muscle regeneration is active at 4 days after muscle injury, effect of farnesol administration may be determined by histological staining. H&E staining is performed to examine structural recovery of injury, and sirus red staining is performed to examine the presence of fibrosis. […] That is, the control old animal has more thicker fibrosis regions located between the fibers than the experimental old animal treated with farnesol.

[8] = 0.1-100 uM tested, from 0.1 to 10 uM, FIG. 1B
[9] = farnesol-treated myoblasts, FIG. 1A

CC(C)=CCC/C(C)=C/CC/C(C)=C/CO [farnesol, (2E,6E)-3,7,11-trimethyldodeca-2,6,10-trien-1-ol]
grip strength [1]: significantly increased
farnesylated PARIS level ([2]; 10 uM farnesol, D0-D4): further increases
PGC-1α expression ([2]; 10 uM farnesol-treated myoblasts): increased
expression of MHC according to farnesol concentration [3, 8]: increased in myoblasts in a farnesol concentration-dependent manner
expression of PGC-1α according to farnesol concentration [3, 8]: increased in myoblasts in a farnesol concentration-dependent manner
expression of myogenin according to farnesol concentration [3, 8]: increased in myoblasts in a farnesol concentration-dependent manner
increase in PGC-1α gene expression compared to control group ([3]; farnesol-treated myoblasts, 48 hours, FIG. 1A): about 2.8 times
expression of myoblast determination protein (MyoD) [3, 9]: increased
expression of myosin heavy chain (MHC) [3, 9]: increased
expression of troponin T gene [3, 9]: increased
blood glucose level in glucose tolerance test [4]: remarkably low
protein expression level of PARIS in EDL [5]: remarkably decreased
transcriptional level of PARIS in EDL [5]: remarkably decreased
expressions of fibrosis-related genes in EDL [6]: remarkably reduced
percentage of blue and red stained muscle fibers (sirus red staining) [7]: remarkably reduced
regenerative region and fibrotic area [7]: a widespread regenerative region and a narrow fibrotic area
size of muscle fibers stained red (H&E staining) [7]: increased
